What was measured:
AP-1 = conditions: nuclear extracts, 32P-labelled AP-1 oligonucleotide probe; cited from earlier work
[1] = test system: perfused human ocular anterior segment; assay: human ocular perfusion organ culture model, aqueous outflow rate; conditions: for Flow Rate (% of Time 0) (Mean ± SEM, n = 6): t-BHQ 10 μM
Description: The study was performed as follows: Human donor eyes less than 24 hours post mortem were used. The globe was sectioned equatorially followed by the removal of vitreous, lens, zonules, iris, and most of the ciliary body. The anterior segment was then mounted on a perfusion dish, perfused with cell culture medium at a constant hydrostatic pressure of 10 mm Hg (Johnson et al., Human trabecular meshwork organ culture: A new method, Invest Ophthalmol Vis Sci., volume 28, pages 945-953 (1987); Erickson-Lamy et al., Outflow facility studies in the perfused human ocular anterior segment, Exp. Eye Res., volume 52, pages 723-731 (1991); and Clark et al., Dexamethasone-induced ocular hypertension in perfusion cultured human eyes, Invest. Ophthalmol. Vis. Sci., volume 36, pages 478-489 (1995)). The flow rate of the perfusate was measured by weighing the reservoir at predetermined periods. After 2 to 4 days of equilibrium period, one eye of each of the donor pair was perfused with the test compound, t-BHQ (10 μM), while the other was perfused with vehicle (control).

CC(C)(C)c1cc(O)ccc1O [t-BHQ, tert-butylhydroquinone]
AP-1 DNA binding activity (AP-1 Activator) (AP-1): demonstrated to be AP-1 Activators | basal flow rate at time 0 ([1]; drug-treated eyes, time 0 (basal)): (1) The basal flow rate at time 0 for vehicle-treated eyes was 3.55 ± 1.00 μL/min, and that for drug-treated eyes was 4.09 ± 0.63 μL/min. | Flow Rate (% of Time 0) (Mean ± SEM, n = 6) ([1]; 0 hours (baseline)): 100.0 % of Time 0 | Flow Rate (% of Time 0) (Mean ± SEM, n = 6) ([1]; 4 hours after treatment): 105.8 ± 5.4 % of Time 0 | Flow Rate (% of Time 0) (Mean ± SEM, n = 6) ([1]; 24 hours after treatment): 102.9 ± 3.9 % of Time 0 | Flow Rate (% of Time 0) (Mean ± SEM, n = 6) ([1]; 48 hours after treatment): 105.2 ± 10.1 % of Time 0 | Flow Rate (% of Time 0) (Mean ± SEM, n = 6) ([1]; 72 hours after treatment): 111.8 ± 11.8 % of Time 0 | Flow Rate (% of Time 0) (Mean ± SEM, n = 6) ([1]; 96 hours after treatment): 120.9 ± 16.4 % of Time 0 | Flow Rate (% of Time 0) (Mean ± SEM, n = 6) ([1]; −4 hours (before treatment)): 97.0 ± 4.0 % of Time 0

— US20060142379A1, “Use of AP-1 activators to treat glaucoma and ocular hypertension” (priority 1999, published 2006)
